From ChEMBL document CHEMBL1125873 (J Med Chem, 1991)

Assays:
[1] = Loss of first equivalent halide ion using Chloride ion electrode experiments.; assay type: ADME
[2] = Half-life value of the compound.; assay type: ADME

O=P(O)(NCCCl)NCCCl [PALIFOSFAMIDE]
k x10e3 [1]: 10 min-1 | half-life [2]: 1.15 h
